Here are results for three compounds from patent publication US20090312277A1, “Compositions And Methods For Reversing Or Preventing Resistance Of A Cancer Cell To A Cytotoxic Agent” (priority 2004, published 2009).

In one test the target is T1, Purified cathepsin L (Homo sapiens, UniProt P07711).
T1 construct: purchased Biomol, Plymouth Meeting, Pa
Briefly: Cathepsin L activity, fluorogenic substrate (CV-Cathepsin L Detection Kit). Format: biochemical. The following applies: inhibitor 10 μM, 200 ng cathepsin L; positive control 4e+5 AU, negative control 0.75e+5 AU. Here is the method: Cathepsin L activity was measured using a commercially available kit according to the manufacturer's procedure (CV-Cathepsin L Detection Kit; Biomol, Plymouth Meeting, Pa.). Purified cathepsin L (Biomol, Plymouth Meeting, Pa.) (200 ng) was incubated with each inhibitor (10 μM) in a 96 well plate for 15 min at room temperature in 100 μl of reaction buffer (100 mM sodium acetate pH 5, 1 mM EDTA (ethylenediaminetetraacetic acid), and 4 mM dithiothreitol). The protease inhibitors tested were: lactacystin and inhibitors of cathepsin L, B, S, and K. 100 μl of a fluorogenic substrate (CV-Cathepsin L Detection Kit; Biomol, Plymouth Meeting, Pa.) were added and incubated for an additional 30 min at room temperature. Fluorescence was measured in a plate reader (Victor Multilabel Counter, Perkin Elmer) at 380 nm excitation and […] emission wavelengths.

Another test has as its system caspase-3. Briefly: Western blot of cleaved (active) caspase-3 in SKN-SH/R cells. Format: cell-based, human. The following applies: cathepsin L inhibitor 10 μM + doxorubicin 10^−6M, 24 hours. Here is the method: (§1) Doxorubicin resistant human neuroblastoma cells (SKN-SH/R) were subjected, in 25 cm^2 flasks, to treatment with a cathepsin L inhibitor and doxorubicin each, alone or in combination. After 24 hours of incubation, culture medium was removed and the cells washed twice with PBS. Proteins were solubilized with 150 μl of lysis buffer (50 mM HEPES pH 7.4, 150 mM NaCl, 100 mM NaF, 1 mM MgCl2, 1.5 mM EGTA, 10% glycerol, 1% Triton X100, 1 μg/ml leupeptin, 1 mM phenyl-methyl-sulfonyl-fluoride). Equal quantities of protein were separated by electrophoresis on a 12% SDS-PAGE gel and transferred to Immobilon-P membranes (Millipore, Bedford, Mass.). P21/WAF1 and cleaved (active) caspase-3 were detected by reaction with specific primary antibodies (P21/WAF1 primary antibody from Santa Cruz Biotechnologies, Santa Cruz, Calif.; and caspase-3 primary antibody from Cell Signaling Technology, Inc., Beverly, Mass.) after one hour of incubation at room temperature in PBS (pH7.4). This was followed by incubation of the membrane for 1 hour at room temperature with presence of secondary anti-Rabbit antibody linked to horseradish peroxidase (Bio-Rad Laboratories, Hercules, Calif.) (1/1000 in PBS). Reactive bands were detected by chemiluminescence.
Background: In western blotting, separated proteins are transferred to a membrane and probed.

A further test deals with p21/WAF1. Briefly: Western blot of p21/WAF1 in SKN-SH/R cells. The class given is cell-based, human. As to conditions: 24 hours. Here is the method: as §1
The test system of test [1] is drug resistant osteosarcoma cells (Saos2-R). As to the kind of experiment: Cell count of drug resistant osteosarcoma cells after siRNA or inhibitor and doxorubicin. Format: cell-based. The following applies: doxorubicin 10^−5 M for 48 hours, untreated 1.6e+6 AU. An excerpt:
The human cathepsin L siRNA was designed in our laboratory by studying a cDNA sequence of the human cathepsin L gene (SEQ ID NO: 2). We selected a segment defined by nucleotide numbers 91-111, sent that sequence to a contract laboratory (Dharmacon, Lafayette, Colo.), which synthesized an siRNA molecule based on the aforementioned segment. The segment of the human cathepsin L cDNA we used was: […] (91-111) (SEQ ID NO: 2). On the day before transfection, 3×10^5 drug resistant osteosarcoma cells (Saos2-R) were seeded in 6-well plates and grown in 2.5 ml of DMEM supplemented with 10% FBS. After 24 hours in culture, 25 μl of 20 μM stock solution of siRNA duplexes were transfected into cells with GeneSilencer™ SiRNA Transfection Reagent Kit (Gene Therapy Systems, Inc., San Diego, Calif.). Briefly, adherent cells were transfected in 6 well plates. Cells were about 70% confluent. In one tube, 5 μl of GeneSilencer™ was mixed with 25 μl of serum free medium. In a second tube, 25 μl of siRNA diluent was mixed with […] of serum free medium and 20 μl of siRNA (100 nM). After incubation of tubes 1 and 2, at room temperature for 5 min, they were mixed together into tube 3 and incubated for an additional 5 min. The content of tube 3 was added to the cells in the 6 well plates and incubated for 2 days before the addition of the drug. After 48 hours of incubation, doxorubicin (10^−5 M) was added and maintained in culture for an additional 48 hours before analysis. The cells were counted and protein lysates were used to detect cathepsin L expression by Western blot as described above.

The subject of test [2] is ovarian cancer (A2780/CR). Briefly: cells. The following applies: Homo sapiens, A2780, 192 h, read-out: percentage of viable cells, single agent.
Description: (§7) The following additional cell lines were tested: breast cancer (MCF-7/doxR) (MCF: ATCC Cat. No. HTB-22) and ovarian cancer (A2780/CR; European collection of cell culture cat# 931112519, Salisbury, UK). Cells were treated with doxorubicin (10^−5M) and/or a cathepsin L inhibitor (25 μM) for eight days. Viable cell number was counted and normalized to 100% of non-treated cells.
In the next test the test system is SKN-SH wild type cells. Briefly: MTT cytotoxicity assay, SKN-SH wild type cells. The class given is cell-based. As to conditions: Homo sapiens, SK-N-SH, 96 h, read-out: IC50 of the cytotoxic agent alone. Here is the method:
(§2) Human neuroblastoma SKN-SH cells (ATCC Cat. No. HTB-11) were cultured in Dulbecco's Modified Eagles Medium (DMEM; Gibco, Grand Island, N.Y.) supplemented with 10% fetal bovine serum (FBS; Sigma-Aldrich, St. Louis, Mo.) at 37° C. in a 95% Air/5% CO2 atmosphere. Resistant cells to doxorubicin (SKN-SH/R) were selected by stepwise exposure to drug concentrations ranging from 10^−9 M through 10^−6 M over a time period of three months. The resulting cell line was subjected to treatment with the doxorubicin alone or in combination with: proteosome inhibitor (Lactacystin), cathepsin B inhibitor (L-3-trans-(Propylcarbamoyl)oxirane-2-carbonyl]-L-isoleucyl-L praline), cathespin L inhibitor (Z-Phe-Tyr(t-Bu)-diazomethylketone), cathespin K inhibitor (1,3-Bis(N-CBZ-Leu-NH)-2-propanonel,3 -Di(N-carbonbenzoyloxy-L-leucyl)amino acetone), or cathespin S inhibitor (Z-Phe-Leu-COCHO.H2O), (all available from Calbiochem-Novabiochem, San Diego) at 10 μM each to determine whether they affect cell response to doxorubicin.
(§3) Cytotoxic activity of doxorubicin and cysteine protease inhibitors were quantitatively determined by a calorimetric assay utilizing 3-(4,5-dimethyl-2-thiazolyl) 2,5-diphenyl tetrazolium bromide (MTT; Sigma-Aldrich, St. Louis, Mo.). […] The optical density of this solution was measured at 570 nm and the percentage of viable cells estimated by comparison with untreated control cells. […]
A general note: Formazan colour is commonly taken as a measure of viable cells.

A further test has as its system Saos2 wild type. Briefly: MTT cytotoxicity assay, Saos2 wild type cells. As to conditions: Homo sapiens, SAOS-2, 96 hours, read-out: IC50 of doxorubicin alone (converted). The class given is cell-based. Here is the method:
(§4) Cytotoxic activity of doxorubicin and cysteine protease inhibitors were quantitatively determined by a calorimetric assay utilizing 3-(4,5-dimethyl-2-thiazolyl) 2,5-diphenyl tetrazolium bromide (MTT; Sigma-Aldrich, St. Louis, Mo.). Briefly, cells were seeded at 10^4 cells/well in 96-well plates and maintained in culture for 24 hours at 37° C. in DMEM supplemented with 10% FBS. Drugs were added to designated wells and cells were incubated for 96 hours, following which MTT (10 μL of 5 mg/ml solution) was added to each 100 μl well and incubated for 4 hours at 37° C. The cells were solubilized by incubation with 100 μl of HCl 0.5N in isopropanol for 15 hours at 37° C. The optical density of this solution was measured at 570 nm and the percentage of viable cells estimated by comparison with untreated control cells.
(§5) The effect of cathepsin L inhibitor was tested on drug sensitive and resistant (R) cell lines corresponding to various cancer types, including the human neuroblastoma cell line SKN-SH (ATCC Cat. No. HTB-11), the murine neuroblastoma cell line Neuro2A (ATCC Cat. No. CCL-131), the osteosarcoma cells Saos2 (ATCC Cat. No. HTB-85) and the leukemia cell line HL-60 (ATCC Cat. No. CCL240). The cells were treated with cathepsin L inhibitor with or without doxorubicin as described above. Cell viability was calculated after 96 hours of incubation with the drug combination. […]

In test [3] the test system is Saos2 doxorubicin resistant. As to the kind of experiment: MTT cytotoxicity assay, Saos2 doxorubicin resistant cells. Format: cell-based. As to conditions: Homo sapiens, SAOS-2, 96 hours, read-out: IC50 of doxorubicin alone (converted). Here is the method: as §4, §5
Test [4] concerns Neuro2A doxorubicin resistant cells. Briefly: MTT cytotoxicity assay, Neuro2A doxorubicin resistant cells. The class given is cell-based, murine. As to conditions: Mus musculus, N2a, 96 hours, read-out: IC50 of doxorubicin alone (converted). Here is the method:
as §4, §5

The next test relates to HL-60 wild type. As to the kind of experiment: MTT cytotoxicity assay, HL-60 wild type cells. Format: cell-based. As to conditions: Homo sapiens, 96 hours, read-out: IC50 of doxorubicin alone (converted). Here is the method: as §4, §5
For the next test, the system named is SKN-SH/R cells. As to the kind of experiment: MTT cytotoxicity assay, doxorubicin-resistant neuroblastoma cells. The class given is cell-based. The following applies: Homo sapiens, SK-N-SH, 96 h, read-out: IC50 (concentration at which 50% of cells remained viable) of the cytotoxic agent alone, SKN-SH/R cells, agent alone (control cells), 96 hours, MTT. Here is the method:
as §2, §3

For test [5], the system named is Drug-sensitive cells SKN-SH. Briefly: Prevention of development of doxorubicin resistance, viable cell count, SKN-SH. The class given is cell-based, human. An excerpt:
(§6) As discussed above, inhibition of cathepsin L enhanced drug response only in drug-resistant cells. Another aspect of the present invention was to determine whether treatment of drug-sensitive cancer cells with this drug combination prevents them from becoming drug resistant. […] After 4 days in culture, the surviving cells were subjected to the same treatment for an additional four days. The cells were then subjected to two subsequent treatments for four days with 2.5×10^−8 M doxorubicin with or without the cathepsin L inhibitor at 10 μM. The surviving cells were then treated with doxorubicin 5×10^−8 M doxorubicin with or without cathepsin L (10 μM) for four days. At the end of each incubation period, viable cells were counted.

In test [6] the test system is breast cancer (MCF-7/doxR). As to the kind of experiment: cells. As to conditions: Homo sapiens, MCF7, 192 h, read-out: percentage of viable cells, single agent.
Description: as §7
Test [7] concerns Drug-sensitive cells Saos2. Briefly: Prevention of development of doxorubicin resistance, viable cell count, Saos2. Format: cell-based.
Description: as §6

The subject of test [8] is Doxorubicin resistant human neuroblastoma cells (SKN-SH/R). Briefly: Tumor growth of SKN-SH/R cells injected into nude mice. Format: in vivo. As to conditions: nude mice, i.p. on day 11, 14, 17; doxorubicin alone 1.5 mg/Kg or iCL alone 30 mg/Kg. Here is the method: Doxorubicin resistant human neuroblastoma cells (SKN-SH/R) cells grown into 75 cm^2 flasks were harvested by trypsinization and centrifuged to remove trypsin. The pellet was then reconstituted in culture medium at 10^7 cell/ml. On day one, 100 μl (10^6 cells) were injected to the right flank of nude mice (5 per group) and after the tumor became palpable at day 11, mice were assigned to four groups: 1) controls (treated with the vehicle DMSO), 2) Dox. 1.5 mg/kg (treated with doxorubicin alone 1.5 mg/Kg), 3) iCL 30 mg/Kg (treated with cathepsin L inhibitor alone at 30 mg/Kg), and 4) Dox 1.5 mg/Kg+iCL 30 mg/Kg (treated with the combination of doxorubicin 1.5 mg/Kg and cathepsin L inhibitor 30 mg/Kg). Intraperetoneal injections were given on day 11, day 14, and day 17.

In test [9] the test system is HL-60 doxorubicin resistance cells. Briefly: MTT cytotoxicity assay, HL-60 doxorubicin resistant cells. Format: cell-based. The following applies: Homo sapiens, 96 hours, read-out: IC50 of doxorubicin alone (converted). Here is the method: as §4, §5
A further test relates to Neuro2A wild type. As to the kind of experiment: MTT cytotoxicity assay, Neuro2A wild type cells. The class given is cell-based, murine. As to conditions: Mus musculus, N2a, 96 hours, read-out: IC50 of doxorubicin alone (converted). Here is the method:
as §4, §5

Setting [10] is: repeated four-day treatments with increasing doxorubicin.

Peptide text beside a SMILES is read from it. * marks the point of attachment. Cbz = O=C(OCc1ccccc1)*; CHN2 = [N-]=[N+]=C*; tBu = CC(C)(C)*

T1 sequence (P07711 114-333, species assumed): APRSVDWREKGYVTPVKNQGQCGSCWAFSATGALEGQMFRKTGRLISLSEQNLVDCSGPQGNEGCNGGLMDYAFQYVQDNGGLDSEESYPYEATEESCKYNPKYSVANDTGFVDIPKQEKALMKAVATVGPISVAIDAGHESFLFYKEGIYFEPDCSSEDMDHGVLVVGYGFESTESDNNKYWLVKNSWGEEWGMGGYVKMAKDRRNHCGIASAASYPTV

Regarding `CC(C)(C)Oc1ccc(C[C@H](NC(=O)[C@H](Cc2ccccc2)NC(=O)OCc2ccccc2)C(=O)C=[N+]=[N-])cc1` [cathepsin L inhibitor, Z-Phe-Tyr(t-Bu)-diazomethylketone] (Cbz-Phe-Tyr(tBu)-CHN2), the “cathepsin L activity (arbitrary units) in presence of inhibitor” value on Purified cathepsin L stood at 1e+5 AU. In addition, the “caspase-3 activation (Western blot), combination with doxorubicin 10^−6M” value in the test on caspase-3 is listed as “increased caspase-3 activation”. Besides, the “expression of p21/WAF1 (Western blot), combination with doxorubicin 10^−6M” value in the test on p21/WAF1 (cathepsin L inhibitor 10 μM + doxorubicin 10^−6M) is recorded as “decreased expression of p21/WAF1”. Also, the “expression of p21/WAF1 (Western blot), combination with doxorubicin 10^−7M” value in the test on p21/WAF1 (cathepsin L inhibitor 10 μM + doxorubicin 10^−7M) is listed as “enhanced expression of p21/WAF1”. The “cell number, in combination with doxorubicin” value in [1] amounted to 2.0e+5 AU.

With `COc1cccc2c1C(=O)c1c(O)c3c(c(O)c1C2=O)C[C@@](O)(C(=O)CO)C[C@@H]3O[C@H]1C[C@H](N)[C@H](O)[C@H](C)O1` [doxorubicin], the viability at 25 µM in [2] was around 70%; in [6], around 50%. Further, the IC50 with SKN-SH wild type cells is around 1.78 nM; in the test on Saos2 wild type, around 100 nM; in test [3], around 5.62 µM; in [4], around 3.16 µM; in the test on HL-60 wild type, around 56.2 nM; in the test on SKN-SH/R cells it was around 178 nM. In addition, the IC50 in test [9] is around 31.6 µM; in the test with Neuro2A wild type, around 31.6 nM. The “change in percentage of viable cells over successive treatments, doxorubicin alone” value in test [5] (setting [10]) was “no change”. For the same compound, in test [7] (setting [10]), the “effect on percentage of viable cells over successive treatments, doxorubicin alone” value was “no affect”. The “average tumor volume on day 27, single agent” value in test [8] is “approximately 1600 mm^3”.

As to `CC[C@H](C)[C@H](NS(=O)(=O)c1ccc2ccccc2c1)C(=O)N[C@H](C=O)Cc1c[nH]c2ccccc12` [cathepsin L inhibitor (Napsule-Ile-Tryp), Napsule-Ile-Tryp], the “viable cells, doxorubicin plus cathepsin L inhibitor, first concentration” value in test [5] (Dox 10^−9 M + inhibitor 10 μM) is reported as “about 80%”. Further, the “viable cells, doxorubicin plus cathepsin L inhibition, first concentration” value in test [7] (Dox 10^−9 M + inhibitor 10 μM) is on record as “about 90%”.
